Reference: patent US8344009B2, “Substituted phenoxy thiazolidinediones as estrogen related receptor-á modulators” (priority 2007, dated 2013)

What follows are compounds tested against T1, ERR1 (also known as ERR-α or ERR-1) (Homo sapiens, UniProt P11474) (assay: TR-FRET assay (disruption of co-activator peptide binding to ERR1 LBD)). Settings: not given.
T1 sequence (P11474 193-421 limits assumed): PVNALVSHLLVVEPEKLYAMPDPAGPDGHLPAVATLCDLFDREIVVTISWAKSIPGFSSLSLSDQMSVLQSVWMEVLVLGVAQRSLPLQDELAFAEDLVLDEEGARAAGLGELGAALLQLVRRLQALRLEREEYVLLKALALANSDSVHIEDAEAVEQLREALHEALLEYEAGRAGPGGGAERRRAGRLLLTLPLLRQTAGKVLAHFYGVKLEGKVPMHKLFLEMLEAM
Assay type: biochemical
Procedure: Time-Resolved Fluorescence Resonance Energy Transfer (TR-FRET) experiments were performed to examine the functional response of ERR1 (also known as ERR-α or ERR-1) ligands. The TR-FRET assay described herein relied on the conformation of ERR1 for binding to a co-activator peptide: when a test compound binds to ERR1 and alters its conformation, it can disrupt the binding of the co-activator peptide. The components of this homogeneous secondary assay included: the ^6His-tagged-ERR1LBD, a GST-labeled-hSRC2 co-activator polypeptide and a fluorescent donor/acceptor pair from CIS bio international htrf/bioassays (Bedford, Mass.) using both an α-GST Europium Cryptate (Eu) label and an α^6His-XL665 (allophycocyanin) fluorophore.
Reactions were allowed to reach equilibrium at 25° C. for 4-18 hours before collecting data on the Analyst from LJL Biosystems (Molecular Devices Sunnyvale, Calif.). […] Dose response curves were fitted using a hyperbolic equation and the data reported is the average of 3 independent experiments.

| EC50 | Compound |
| --- | --- |
| 130 nM | COc1cc(/C=C2\SC(=O)NC2=O)ccc1Oc1ccc(C(F)(F)F)cc1Cl [Compound 2, 5-[4-(2-Chloro-4-trifluoromethyl-phenoxy)-3-methoxy-benzylidene]-thiazolidine-2,4-dione] |
| 550 nM | COc1cc(/C=C2\SC(=O)NC2=O)ccc1Oc1ccc(C(F)(F)F)cc1C#N [Compound 8, 2-[4-(2,4-Dioxo-thiazolidin-5-ylidenemethyl)-2-methoxy-phenoxy]-5-trifluoromethyl-benzonitrile] |
| 480 nM | COC(=O)c1cc(C(F)(F)F)ccc1Oc1ccc(/C=C2\SC(=O)NC2=O)cc1OC [Compound 9, 2-[4-(2,4-Dioxo-thiazolidin-5-ylidenemethyl)-2-methoxy-phenoxy]-5-trifluoromethyl-benzoic acid methyl ester] |
| 12 nM | COC(=O)c1ccc(Oc2ccc(/C=C3\SC(=O)NC3=O)cc2OC)c(C(F)(F)F)c1 [Compound 10, 4-[4-(2,4-Dioxo-thiazolidin-5-ylidenemethyl)-2-methoxy-phenoxy]-3-trifluoromethyl-benzoic acid methyl ester] |
| 120 nM | COc1cc(/C=C2\SC(=O)NC2=O)ccc1Oc1ccc(C#N)c2ccccc12 [Compound 19, 4-[4-(2,4-Dioxothiazolidin-5-ylidenemethyl)-2-methoxyphenoxy]naphthalene-1-carbonitrile] |
| 380 nM | COc1cc(/C=C2\SC(=O)NC2=O)ccc1Oc1ccc(C(F)(F)F)cc1Br [Compound 20, 5-[4-(2-Bromo-4-trifluoromethylphenoxy)-3-methoxybenzylidene]thiazolidine-2,4-dione] |
| 430 nM | COc1cc(/C=C2\SC(=O)NC2=O)ccc1Oc1ccc(C#N)cc1Cl [Compound 21, 3-Chloro-4-[4-(2,4-dioxothiazolidin-5-ylidenemethyl)-2-methoxyphenoxy]benzonitrile] |
| 480 nM | COc1cc(/C=C2\SC(=O)NC2=O)ccc1Oc1ccc(C#N)cc1Br [Compound 22, 3-Bromo-4-[4-(2,4-dioxothiazolidin-5-ylidenemethyl)-2-methoxyphenoxy]benzonitrile] |
| 1 nM | COC(=O)c1ccc(Oc2ccc(/C=C3\SC(=O)NC3=O)cc2OC)c2ccccc12 [Compound 24] |

Same assay, conditions: average of 3 independent experiments; read-out: TR-FRET EC50

| EC50 | Compound |
| --- | --- |
| 1030 nM | COc1cc(/C=C2\SC(=O)NC2=O)ccc1Oc1ccc(S(C)(=O)=O)cc1Br [Compound 3, 5-[4-(2-Bromo-4-methanesulfonyl-phenoxy)-3-methoxy-benzylidene]-thiazolidine-2,4-dione] |
| 550 nM | COc1cc(/C=C2\SC(=O)NC2=O)ccc1Oc1ccc(S(C)(=O)=O)cc1Cl [Compound 4, 5-[4-(2-Chloro-4-methanesulfonyl-phenoxy)-3-methoxy-benzylidene]-thiazolidine-2,4-dione] |
| 570 nM | COc1cc(/C=C2\SC(=O)NC2=O)ccc1Oc1ccc(Br)cc1C(F)(F)F [Compound 5, 5-[4-(4-Bromo-2-trifluoromethyl-phenoxy)-3-methoxy-benzylidene]-thiazolidine-2,4-dione] |
| 510 nM | COc1cc(/C=C2\SC(=O)NC2=O)ccc1Oc1ccc(C(N)=O)cc1C(F)(F)F [Compound 6, 4-[4-(2,4-Dioxo-thiazolidin-5-ylidenemethyl)-2-methoxy-phenoxy]-3-trifluoromethyl-benzamide] |
| 480 nM | Cc1cc(/C=C2\SC(=O)NC2=O)ccc1Oc1ccc(C#N)c2ccccc12 [Compound 11, 4-[4-(2,4-Dioxo-thiazolidin-5-ylidenemethyl)-2-methyl-phenoxy]-naphthalene-1-carbonitrile] |
| 150 nM | N#Cc1ccc(Oc2ccc(/C=C3\SC(=O)NC3=O)cc2F)c(C(F)(F)F)c1 [Compound 12, 4-[4-(2,4-Dioxo-thiazolidin-5-ylidenemethyl)-2-fluoro-phenoxy]-3-trifluoromethyl-benzonitrile] |
| 180 nM | CCOc1cc(/C=C2\SC(=O)NC2=O)ccc1Oc1ccc(C#N)cc1C(F)(F)F [Compound 13, 4-[4-(2,4-Dioxo-thiazolidin-5-ylidenemethyl)-2-ethoxy-phenoxy]-3-trifluoromethyl-benzonitrile] |
| 200 nM | Cc1cc(/C=C2\SC(=O)NC2=O)ccc1Oc1ccc(C#N)cc1C(F)(F)F [Compound 14, 4-[4-(2,4-Dioxo-thiazolidin-5-ylidenemethyl)-2-methyl-phenoxy]-3-trifluoromethyl-benzonitrile] |
| 37 nM | CCOc1cc(/C=C2\SC(=O)NC2=O)ccc1Oc1ccc(C#N)c2ccccc12 [Compound 15, 4-[4-(2,4-Dioxo-thiazolidin-5-ylidenemethyl)-2-ethoxy-phenoxy]-naphthalene-1-carbonitrile] |
| 600 nM | N#Cc1ccc(Oc2ccc(/C=C3\SC(=O)NC3=O)cc2Br)c(C(F)(F)F)c1 [Compound 16, 4-[2-Bromo-4-(2,4-dioxo-thiazolidin-5-ylidenemethyl)-phenoxy]-3-trifluoromethyl-benzonitrile] |
| 100 nM | N#Cc1ccc(Oc2ccc(/C=C3\SC(=O)NC3=O)cc2F)c2ccccc12 [Compound 17, 4-[4-(2,4-Dioxo-thiazolidin-5-ylidenemethyl)-2-fluoro-phenoxy]-naphthalene-1-carbonitrile] |
| 520 nM | N#Cc1ccc(Oc2ccc(/C=C3\SC(=O)NC3=O)cc2Cl)c(C(F)(F)F)c1 [Compound 18, 4-[2-Chloro-4-(2,4-dioxo-thiazolidin-5-ylidenemethyl)-phenoxy]-3-trifluoromethyl-benzonitrile] |
| 480 nM | COc1cc(/C=C2\OC(=O)NC2=O)ccc1Oc1ccc(C#N)c2ccccc12 [Compound 23, 4-[4-(2,4-Dioxo-oxazolidin-5-ylidenemethyl)-2-methoxy-phenoxy]-naphthalene-1-carbonitrile] |
| 1000 nM | N#Cc1ccc(Oc2ccc(/C=C3\SC(=O)NC3=O)cc2C(F)(F)F)c(C(F)(F)F)c1 [Compound 26, 4-[4-(2,4-Dioxo-thiazolidin-5-ylidenemethyl)-2-trifluoromethyl-phenoxy]-3-trifluoromethyl-benzonitrile] |
| 330 nM | CCOc1cc(/C=C2\SC(=O)NC2=O)ccc1Oc1ccc(C(N)=O)cc1C(F)(F)F [Compound 27, 4-[4-(2,4-Dioxo-thiazolidin-5-ylidenemethyl)-2-ethoxy-phenoxy]-3-trifluoromethyl-benzamide] |
| 440 nM | Cc1cc(/C=C2\SC(=O)NC2=O)ccc1Oc1ccc(C(N)=O)cc1C(F)(F)F [Compound 28, 4-[4-(2,4-Dioxo-thiazolidin-5-ylidenemethyl)-2-methyl-phenoxy]-3-trifluoromethyl-benzamide] |
| 180 nM | N#Cc1ccc(Oc2ccc(/C=C3\SC(=O)NC3=O)cc2OC(F)(F)F)c(C(F)(F)F)c1 [Compound 29, 4-[4-(2,4-Dioxo-thiazolidin-5-ylidenemethyl)-2-trifluoromethoxy-phenoxy]-3-trifluoromethyl-benzonitrile] |
| 8 nM | COc1cc(/C=C2\SC(=O)NC2=O)ccc1Oc1ccc(Cl)cc1C(F)(F)F [Compound 30, 5-[4-(4-Chloro-2-trifluoromethyl-phenoxy)-3-methoxy-benzylidene]-thiazolidine-2,4-dione] |
| 33 nM | O=C1NC(=O)/C(=C/c2ccc(Oc3ccc(Cl)cc3C(F)(F)F)c(F)c2)S1 [Compound 31, 5-[4-(4-Chloro-2-trifluoromethyl-phenoxy)-3-fluoro-benzylidene]thiazolidine-2,4-dione] |
